Columns and labels:
II1β mRNA = test: Real-time RT-PCR of colonic II1β mRNA; format: in vivo, mice; details: AS252424 vs vehicle treated infected mice
Description: Total RNA from colonic tissue was extracted using TRIzol® kit (Invitrogen, Carlsbad, Calif., United States of America). Complementary DNA was prepared using M-MLV (Invitrogen). Messenger RNA levels of proinflammatory genes were determined using SYBR® Green PCR Master Mix (Applied Biosystems, Carlsbad, Calif., United States of America) on an ABI 7900HT Fast Real-Time PCR System and normalized to Gapdh. The polymerase chain reactions were performed according to the manufacturer's recommendation. The following gene primers were used: Gapdh_forward: 5′-[…]-3′ (SEQ ID NO: 2), Gapdh_reverse: 5′-[…]-3′ (SEQ ID NO: 3), II-1_forward: 5′-[…]-3′ (SEQ ID NO: 4), II-1_reverse: 5′-[…]-3′ (SEQ ID NO: 5), Cxcl2_forward: 5′-[…]-3′ (SEQ ID NO: 6), Cxcl2_reverse: 5′-[…]-3′ (SEQ ID NO: 7), II-17a_forward: 5′-[…]-3′ (SEQ ID NO: 8), II-17a_reverse: 5′-[…]-3′ (SEQ ID NO: 9), II12p40_forward: […] (SEQ ID NO: 10), II12p40_reverse: […] (SEQ ID NO: 11), Tnf forward: […] (SEQ ID NO: 12), Tnf reverse: […] (SEQ ID NO: 13).
Total RNA from intestinal tissues was extracted using TRIzol® kit (Invitrogen, Carlsbad, Calif., United States of America) following the manufacture's guide. cDNA was reverse-transcribed using M-MLV (Invitrogen). Proinflammatory 111β, Cxcl2, II17a and Tnfα mRNA expression levels were measured using SYBR® Green PCR Master mix (Applied Biosystems, Carlsbad, Calif., United States of America) on an ABI 7900HT Fast Real-Time PCR System and normalized to Gapdh. The PCR primers used were reported previously. (Sun et al., 2012). The PCR reactions were performed for 40 cycles according to the manufacturer's recommendation, and RNA fold changes were calculated using the ΔΔct method.

p70S6 kinase (T389) = test: Western blot of colonic p70S6K phosphorylation in C. jejuni infected mice; format: in vivo; details: AS252424 10 mg/kg i.p. daily, 6 days
Description: (§1) Whole tissues were lysed in Laemmli buffer and 20 μg of protein was separated by SDS-PAGE, transferred to nitrocellulose membranes and protein detected using enhanced chemiluminescence reaction (ECL) as described previously. (Lippert et al., 2009). Primary antibodies used were phospho-p70S6K (T389) and p70S6K (Cell Signaling, Danvers, Mass., United States of America), EGFP (Sigma, St. Louis, Mo., United States of America), LC3 I/II (MBL) and Actin.
A segment of the distal colon was lysed in 300 μl Laemmli buffer, homogenized and heated at 95° C. for 5 min. 20 μg of total protein were separated by SDS-PAGE and transferred to nitrocellulose membranes. Targeted protein was detected using enhanced chemiluminescence reaction (ECL) as described previously (Muhlbauer et al., 2008). Primary antibodies used were phosphor-AKT (S473), phosphor-p70S6K (T389), total AKT (all from Cell Signaling, Danvers, Mass., United States of America) and EGFP (Sigma, St. Louis, Mo., United States of America). The density of Western blot bands was quantified using ImageJ and data were normalized to total AKT control.

NF-κB = test: NF-κB-driven EGFP expression in colon (macroimaging, Western blot, confocal); format: in vivo; details: AS252424-treated vs vehicle-treated mice
Description: as §1
II10^−/−; NF-κB^EGFP mice were sacrificed; the colon was dissected and immediately imaged using a charge-coupled device camera in a light-tight imaging box with a dual-filtered light source and emission filters specific for EGFP (LT-99D2 Illumatools; Lightools Research, Encinitas, Calif., United States of America). For microimaging, colonic segments were cut open and fixed in 4% paraformaldehyde overnight at 4° C., and then permeabilized in 2% triton overnight at 4° C. The tissues were then immersed in FocusClear (CelExplorer labs) and then stained with DAPI. […]
A segment of the distal colon was lysed in 300 μl Laemmli buffer, homogenized and heated at 95° C. for 5 min. […] Targeted protein was detected using enhanced chemiluminescence reaction (ECL) as described previously (Muhlbauer et al., 2008). […] The density of Western blot bands was quantified using ImageJ and data were normalized to total AKT control. […]

C. jejuni = test: Colonic crypt abscess count in C. jejuni infected mice; format: in vivo; details: AS252424-treated II10−/− mice vs vehicle
Source text: All animal protocols were approved by the Institutional Animal Care and Use Committee of the University of North Carolina at Chapel Hill (Chapel Hill, N.C., United States of America). Germ-free 8-12 week-old II10^−/−; NF-κBEGFP (129/SvEv; C57BL/6 mixed background), II10^−/− and II10^−/−; Rag2^−/− mice (129/SvEv) were transferred from germ-free isolators and immediately gavaged with a single dose of 10^9 C. jejuni cfu/mouse (strain 81-176 (Korlath et al., 1985)) and sacrificed after up to 14 days as described previously (Sun et al., 2012). Specific pathogen free (SPF) housed Wt, II10^−/− and Pi3kγ^−/− (Sasaki et al., 2000) mice all on a 129/SvEv background were gavaged 10^9 C. jejuni cfu/mouse one day after 7 day treatment with antibiotics cocktail (streptomycin 2 g/L, gentamycin 0.5 g/L, bacteriocin 1 g/L and ciprofloxacin 0.125 g/L) (Sun et al., 2012). […] Histological images were acquired using a DP71 camera and DP Controller 3.1.1.276 (Olympus, Center Valley, Pa., United States of America), and intestinal inflammation was scored on a scale of 0 to 4 as described before (Lippert et al., 2009; Sun et al., 2012). Neutrophils in colonic tissues were identified based on morphological features using H&E stained sections and counted in 5 fields of view/mouse using a microscope. Data were expressed as average counts/mouse.

O=C1NC(=O)/C(=C/c2ccc(-c3ccc(F)cc3O)o2)S1 [AS252424]
block of C. jejuni-induced I11β mRNA accumulation (II1β mRNA): 77% | attenuation of p70S6K phosphorylation (T389) in colonic extracts (p70S6 kinase (T389)): 34% | induction of EGFP expression (NF-κB activity) in the colon (NF-κB): reduced | reduction of C. jejuni-induced crypt abscesses (C. jejuni): 95%
